Reference: patent US7446091B2, “Methods and preparations for curing clinically ill patients” (Novo Nordisk A/S, priority 2000, dated 2008)

Test system: mechanically ventilated, adult patients admitted to the intensive care unit (ICU)
Experiment: Example 2: prospective, randomized, controlled study, morbidity analysis
Format: in vivo, human
Conditions: for Patients with critical illness polyneuropathy - total no.: EMG-screened patients; for Number of transfusions per patient (median): admission day not taken into account
Excerpt: All mechanically ventilated, adult patients admitted to the intensive care unit (ICU) were eligible for inclusion.
At baseline, demographic, diagnostic and therapeutic information as well as information necessary to determine severity of illness and utilization of ICU resources were obtained from each patient (Table 1). These included APACHE-II (Acute Physiology and Chronic Health Evaluation) score with higher values indicating more severe illness (see Knaus) and simplified Therapeutic Intervention Scoring System (TISS-28) with higher values indicating a higher number of therapeutic interventions (see Reis Miranda & Keene). APACHE II and TISS scores were calculated daily from ICU admission to discharge or death.
A blood sample was taken upon ICU admission and daily at 06:00 h until discharge from ICU or death. On-admission and daily morning, whole blood glucose level as well as daily maximal and minimal glycemia were analysed. Analyses on the 06:00 h sample also included clinical chemistry, hematology and markers of inflammation.
Blood cultures were taken whenever continously monitored central body temperature acutely rose above 38.5° C. Results from all blood cultures were interpreted by the same blinded investigator. An episode of bacteremia, fungemia or mycobacteremia was defined by the first positive blood culture in a series. To identify a blood stream infection with coagulase-negative staphylocci, identical strains (compared by antibiogram) of microorganisms in two or more positive blood cultures were required (see Weinstein 1997 and Weinstein 1998).
In patients treated in ICU for more than one week, a weekly electromyography (EMG) was performed to screen for Critical Illness Polyneuropathy. EMGs were interpreted by the same electrophysiologist who was blinded for randomization. In case of ICU death, a post-mortem examination was performed to confirm the presumed cause of death.
The primary outcome measure was death from all causes during intensive care. Secondary outcome measures were in-hospital mortality, incidence of prolonged intensive care dependency and need for ICU re-admission, need for vital organ system support comprising mechanical ventilatory support, renal replacement therapy (continuous or intermittent hemofiltration or dialysis), inotropic or vasopressor support, incidence of critical illness polyneuropathy, the degree of inflammation, incidence of blood stream infections and use of antibiotics, transfusion requirements and incidence of hyperbilirubinemia. Furthermore, use of intensive care resources was analysed by cumulative TISS scores. In order to accurately and objectively assess duration of ICU stay, which is often influenced by non-patient related factors such as bed availability on regular wards, patients were defined ‘dischargable from ICU’ when they were no longer in need of vital organ system support and received at least ⅔rd of the caloric need through the normal enteral route or earlier when actually sent to a ward.
Baseline and outcome variables were compared using Student's t-test, Chi-square test and Mann-Whitney-U test, as appropriate. Death odds ratios were calculated using multivariate logistic regression analysis. The effect on time of in-hospital death was assessed by Kaplan-Meier analysis and logrank (Mantel-Cox) significance testing. Patients discharged from the hospital were considered as survivors. Data are presented as percentages, means ±SD or medians (25th-75th percentile) unless indicated otherwise.

[1] = IIS, ICU stay >5 days (N = 451)
[2] = IIS, ICU stay ≤5 days (N = 1097)
[3] = RIS, ICU stay >5 days (N = 451)
[4] = RIS, ICU stay ≤5 days (N = 1097)

Question: What does the source list for insulin?
Answer: >3 days C-reactive protein level above 150 mg/L (%) (IIS): (15%); >3 days C-reactive protein level above 150 mg/L - total no. (IIS): 119; >3 days central body temperature ≤36° C. or […]38° C. (%) (IIS): (21%); >3 days central body temperature ≤36° C. or […]38° C. - total no. (IIS): 164; >3 days white blood cell count ≤4000/μL or […]12000/μL (%) (IIS): (16%); >3 days white blood cell count ≤4000/μL or […]12000/μL - total no. (IIS): 121; Lowest level of hemoglobin (g/dL) when transfused (median) (IIS): 8.3 g/dL; Number of patients requiring red cell transfusion (%) (IIS): (29%); Number of patients requiring red cell transfusion - total no (IIS): 219; Patients needing dialysis or CVVH (%) (IIS): (4.8%); Patients needing dialysis or CVVH - total no (IIS): 37; Patients on inotropic/vasopressor treatment (%) (IIS): (75%); Patients on inotropic/vasopressor treatment - total no. (IIS): 574; Patients requiring >7 days intensive care (%) (IIS): (20.5%); Patients requiring >7 days intensive care - total no (IIS): 157; Patients requiring >7 days ventilatory support (%) (IIS): (16.9%); Patients requiring >7 days ventilatory support - total no. (IIS): 125; Patients requiring >14 days intensive care (%) (IIS): (11.4%); Patients requiring >14 days intensive care - total no (IIS): 87; Patients requiring >14 days ventilatory support (%) (IIS): (7.7%); Patients requiring >14 days ventilatory support - total no. (IIS): 57; Patients requiring >21 days intensive care (%) (IIS): (6.5%); Patients requiring >21 days intensive care - total no (IIS): 50; Patients requiring >21 days ventilatory support (%) (IIS): (5.0%); Patients requiring >21 days ventilatory support - total no. (IIS): 37; Patients treated with antibiotics for >10 days (%) (IIS): (11.2%); Patients treated with antibiotics for >10 days - total no. (IIS): 86; Patients with an ICU stay of >5 days (IIS): 27%; Patients with blood stream infections during intensive care (%) (IIS): (4.2%); Patients with blood stream infections during intensive care - total no (IIS): 32; Patients with critical illness polyneuropathy (% of EMG-screened) (IIS): (29%); Patients with hyperbilirubinemia (peak bilirubin >2 mg/dL) (%) (IIS): (22%); Patients with hyperbilirubinemia (peak bilirubin >2 mg/dL) - total no. (IIS): 171; Peak plasma creatinine >2.5 mg/dL (%) (IIS): (9.0%); Peak plasma creatinine >2.5 mg/dL - total no. (IIS): 69; Peak plasma urea concentration >150 mg/dL (%) (IIS): (7.7%); Peak plasma urea concentration >150 mg/dL - total no. (IIS): 59; Repetitive (>2) positive EMGs (% of EMG screened) (IIS): (7%); Repetitive (>2) positive EMGs - total no (IIS): 11; >3 days C-reactive protein level above 150 mg/L, NNT (IIS vs RIS): 17; >3 days C-reactive protein level above 150 mg/L, RRR (%) (IIS vs RIS): 29%; >3 days abnormal central body temperature, NNT (IIS vs RIS): 20; >3 days abnormal central body temperature, RRR (%) (IIS vs RIS): 19%; >3 days abnormal white blood cell count, NNT (IIS vs RIS): 20; >3 days abnormal white blood cell count, RRR (%) (IIS vs RIS): 24%; In-hospital stay, difference between the two study groups (IIS vs RIS): not detectably different; Patients needing dialysis or CVVH, NNT (IIS vs RIS): 29; Patients needing dialysis or CVVH, RRR (%) (IIS vs RIS): 42%; Patients on inotropic/vasopressor treatment, RRR (%) (IIS vs RIS): =; Patients requiring >7 days intensive care, NNT (IIS vs RIS): 17; Patients requiring >7 days intensive care, RRR (%) (IIS vs RIS): 22%; Patients requiring >7 days ventilatory support, NNT (IIS vs RIS): 16; Patients requiring >7 days ventilatory support, RRR (%) (IIS vs RIS): 27%; Patients requiring >14 days intensive care, NNT (IIS vs RIS): 23; Patients requiring >14 days intensive care, RRR (%) (IIS vs RIS): 27%; Patients requiring >14 days ventilatory support, NNT (IIS vs RIS): 22; Patients requiring >14 days ventilatory support, RRR (%) (IIS vs RIS): 37%; Patients requiring >21 days intensive care, NNT (IIS vs RIS): 33; Patients requiring >21 days intensive care, RRR (%) (IIS vs RIS): 32%; Patients requiring >21 days ventilatory support, NNT (IIS vs RIS): 31; Patients requiring >21 days ventilatory support, RRR (%) (IIS vs RIS): 39%; Patients treated with antibiotics for >10 days, NNT (IIS vs RIS): 17; Patients treated with antibiotics for >10 days, RRR (%) (IIS vs RIS): 35%; Patients with blood stream infections, NNT (IIS vs RIS): 28; Patients with blood stream infections, RRR (%) (IIS vs RIS): 46%; Patients with critical illness polyneuropathy, RRR (%) (IIS vs RIS): 44%; Patients with hyperbilirubinemia, NNT (IIS vs RIS): 20; Patients with hyperbilirubinemia, RRR (%) (IIS vs RIS): 19%; Peak plasma creatinine >2.5 mg/dL, NNT (IIS vs RIS): 31; Peak plasma creatinine >2.5 mg/dL, RRR (%) (IIS vs RIS): 26%; Peak plasma urea concentration >150 mg/dL, NNT (IIS vs RIS): 29; Peak plasma urea concentration >150 mg/dL, RRR (%) (IIS vs RIS): 31%; Repetitive (>2) positive EMGs, NNT (IIS vs RIS): 8; Repetitive (>2) positive EMGs, RRR (%) (IIS vs RIS): 63%; Patients with critical illness polyneuropathy, NNT (IIS vs RIS, among screened patients): 4; Reduction in median cumulative TISS score (IIS vs RIS, long-stay patients): 20%; Patients with critical illness polyneuropathy - total no. (IIS): 47; Cumulative TISS (median) [1]: 431; Days on ICU (median) [1]: 12 days; Days on mechanical ventilatory support (median) [1]: 10 days; Cumulative TISS (median) [2]: 85; Days on ICU (median) [2]: 2 days; Days on mechanical ventilatory support (median) [2]: 1 days; Number of transfusions per patient (median) (IIS): 1; >3 days C-reactive protein level above 150 mg/L (%) (RIS): (21%); >3 days C-reactive protein level above 150 mg/L - total no. (RIS): 162; >3 days central body temperature ≤36° C. or […]38° C. (%) (RIS): (26%); >3 days central body temperature ≤36° C. or […]38° C. - total no. (RIS): 206; >3 days white blood cell count ≤4000/μL or […]12000/μL (%) (RIS): (21%); >3 days white blood cell count ≤4000/μL or […]12000/μL - total no. (RIS): 166; Lowest level of hemoglobin (g/dL) when transfused (median) (RIS): 8.1 g/dL; Number of patients requiring red cell transfusion (%) (RIS): (31%); Number of patients requiring red cell transfusion - total no (RIS): 243; Patients needing dialysis or CVVH (%) (RIS): (8.2%); Patients needing dialysis or CVVH - total no (RIS): 64; Patients on inotropic/vasopressor treatment (%) (RIS): (75%); Patients on inotropic/vasopressor treatment - total no. (RIS): 586; Patients requiring >7 days intensive care (%) (RIS): (26.3%); Patients requiring >7 days intensive care - total no (RIS): 206; Patients requiring >7 days ventilatory support (%) (RIS): (23.2%); Patients requiring >7 days ventilatory support - total no. (RIS): 175; Patients requiring >14 days intensive care (%) (RIS): (15.7%); Patients requiring >14 days intensive care - total no (RIS): 123; Patients requiring >14 days ventilatory support (%) (RIS): (12.3%); Patients requiring >14 days ventilatory support - total no. (RIS): 93; Patients requiring >21 days intensive care (%) (RIS): (9.5%); Patients requiring >21 days intensive care - total no (RIS): 74; Patients requiring >21 days ventilatory support (%) (RIS): (8.2%); Patients requiring >21 days ventilatory support - total no. (RIS): 62; Patients treated with antibiotics for >10 days (%) (RIS): (17.1%); Patients treated with antibiotics for >10 days - total no. (RIS): 134; Patients with an ICU stay of >5 days (RIS): 31%; Patients with blood stream infections during intensive care - total no (RIS): 61; Patients with critical illness polyneuropathy (% of EMG-screened) (RIS): (52%); Patients with hyperbilirubinemia (peak bilirubin >2 mg/dL) (%) (RIS): (27%); Patients with hyperbilirubinemia (peak bilirubin >2 mg/dL) - total no. (RIS): 209; Peak plasma creatinine >2.5 mg/dL (%) (RIS): (12.2%); Peak plasma creatinine >2.5 mg/dL - total no. (RIS): 96; Peak plasma urea concentration >150 mg/dL (%) (RIS): (11.2%); Peak plasma urea concentration >150 mg/dL - total no. (RIS): 88; Repetitive (>2) positive EMGs (% of EMG screened) (RIS): (19%); Repetitive (>2) positive EMGs - total no (RIS): 39; Patients with critical illness polyneuropathy - total no. (RIS): 110; Cumulative TISS (median) [3]: 536; Days on ICU (median) [3]: 15 days; Days on mechanical ventilatory support (median) [3]: 12 days; Cumulative TISS (median) [4]: 84; Days on ICU (median) [4]: 2 days; Days on mechanical ventilatory support (median) [4]: 1 days; Number of transfusions per patient (median) (RIS): 2; TISS score on the last day of study (median, IQR) (both study groups (IIS and RIS)): 30 (26-38); ICU re-admission rate (similar in both groups (IIS and RIS)): 2.1%
